Source: patent US20230150951A1, “2,5- OR 2,6-DISUBSTITUTED HYDROQUINONE DERIVATIVES WITH AT LEAST ONE CARBOXY, SULFO OR AMIDO GROUP USEFUL AS MEDICAMENTS” (OM PHARMA SA, priority 2020, published 2023)
pIC50: −log10 of the molar value. Like-named read-outs stand apart in the source and are kept apart here.

Columns and labels:
Assay type in all cases: cell-based
VEGFR-2 = biological target: T1, VEGFR-2 (Homo sapiens, UniProt P35968); test: VEGF-165 induced phosphorylation of VEGF-Receptor on HUVEC; details: HUVEC preincubated 60 min, VEGF165 25 ng/mL 2 min; read-out: VEGFR-Phosphorylation inhibition IC50
T1 construct: endogenous in cells; host or cells: primary HUVEC

Human neutrophils = test: Inhibition of ROS production in human neutrophils (isoluminol chemiluminescence); details: Homo sapiens, Neutrophil, fMLP+TNF-α stimulated PMN
Procedure, shortened: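 Extracellular ROS measured as isoluminol-amplified chemiluminescence following 1 μM fMLP activation on fibrinogen-coated plates, readings every 25 sec over 250 sec minus HBSS/isoluminol background. Beforehand, cells were treated with compounds at 0.1, 0.3, 1, 3 or 10 μM (30 min, 37° C) and TNF-α (20 ng/ml, 10 min); duplicate or triplicate.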

IFN-gamma = test: Cytokine release after LPS induction on human whole blood: IFNγ
Experimental: (§1) Aim of this in vitro method is to assess compounds effects on release of a panel of cytokines from whole blood following lipopolysaccharide (LPS) induced inflammatory reaction. Whole blood was incubated with compounds for 1 h prior to LPS induction. Cytokine levels in blood were measured using a multiplex FACS-based panel.
(§2) IC50 values determined for the tested compounds expressed in microM [μM] and the values for the inhibition of cytokines were listed for each compound.
(§3) Effect on cytokines release after LPS induction was performed on the compounds dissolved in DMSO or H2O to reach 10-fold concentrated stock solutions and dissolved in culture media.
(§4) Test system: Whole blood was removed from a single donor (into lithium heparin coated tubes; BD Vacutainer; 367886) and diluted 1:5 with RPMI 1640 (Thermo Fisher, 61870036). Within 30 minutes of sampling, blood was incubated with compounds for 1 h prior to LPS stimulation (O111:B4—Sigma L4391; 10 ng/ml final concentration). Stimulation continued under standard cell culture conditions (37° C. with 5% CO2) overnight (18 h), after which plates were centrifuged and supernatant removed and frozen at −80° C. until used for analyses.
(§5) Dilution of test compounds: 10×concentrated solutions (concerning to the final assay concentrations) of each test compound were prepared with the appropriate solvent (in DMSO or in water). These 10× compound solutions (10 μl) were then added to 90 μl pre-diluted whole blood (whole blood: RPMI1640, 1:5) resulting in the final assay concentration.
(§6) Test method: Diluted whole blood (80 μl) was pre-incubated with compounds (10 μl) to give final assay concentrations of 100, 30, 10, 3, 1, 0.3 and 0.1×10^−6M. Blood was incubated at 37° C. with 5% CO2 for 1 h. LPS was diluted in cell culture media to a concentration of […]; 10 μl was added to the whole blood to give a final concentration of 10 ng/ml. Plates were incubated at 37° C. for 18 h. Plates were centrifuged at 3,000 RPM for 5 minutes at 4° C. and supernatant removed and frozen at −80° C. until FACS analysis was carried out.
(§7) Cytokine release was measured using a custom multiplex system (ELISA Genie) according to manufacturers instructions. Prepared samples were run on an Attune NxT flow cytometer (Thermo Fisher).
(§8) Quantification of cytokine release inhibition: known concentration standards were run as part of the cytokine panel to allow quantification of each cytokine concentration in each sample. This was carried out using FCAP Array v3.0 software.
(§9) Results: The dose response relationship on cytokine release following LPS induction of inflammatory response in whole blood was assessed for all compounds. IC50 values were determined for each compound for a panel of cytokines (GM-CSF, IFN-gamma, IL-1beta, IL-2, IL-4, IL-5, IL-6, IL-8, IL-9, IL-10, IL-12p40, IL-13, IL-17A, IL-17F, IL-18, IL-21, IL-22, IL-33, TGF-beta, TNF-alpha, TNF-beta).

IL-1beta = test: Cytokine release after LPS induction on human whole blood: IL-1β
Experimental: as §1, §2, §3, §4, §5, §6, §7, §8, §9

IL-9 = test: Cytokine release after LPS induction on human whole blood: IL-9
Experimental: as §1, §2, §3, §4, §5, §6, §7, §8, §9

IL-10 = test: Cytokine release after LPS induction on human whole blood: IL-10
Experimental: as §1, §2, §3, §4, §5, §6, §7, §8, §9

IL-21 = test: Cytokine release after LPS induction on human whole blood: IL-21
Experimental: as §1, §2, §3, §4, §5, §6, §7, §8, §9

TGF-beta = test: Cytokine release after LPS induction on human whole blood: TGFβ
Experimental: as §1, §2, §3, §4, §5, §6, §7, §8, §9

[1] = Homo sapiens, LPS 10 ng/ml, 18 h, read-out: Whole Blood: IFNγ IC50
[2] = Homo sapiens, LPS 10 ng/ml, 18 h, read-out: Whole Blood: IL-1β IC50
[3] = Homo sapiens, LPS 10 ng/ml, 18 h, read-out: Whole Blood: IL-9 IC50
[4] = Homo sapiens, LPS 10 ng/ml, 18 h, read-out: Whole Blood: IL-10 IC50
[5] = Homo sapiens, LPS 10 ng/ml, 18 h, read-out: Whole Blood: IL-21 IC50
[6] = Homo sapiens, LPS 10 ng/ml, 18 h, read-out: Whole Blood: TGFβ IC50
[7] = human whole blood, inhibition of LPS induced inflammation, read-out: IC50 IFNγ
[8] = human whole blood, inhibition of LPS induced inflammation, read-out: IC50 IL-1b
[9] = human whole blood, inhibition of LPS induced inflammation, read-out: IC50 IL-9
[10] = human whole blood, inhibition of LPS induced inflammation, read-out: IC50 IL-10
[11] = human whole blood, inhibition of LPS induced inflammation, read-out: IC50 IL-21
[12] = human whole blood, inhibition of LPS induced inflammation, read-out: IC50 TGFbeta

T1 sequence (P35968 20-1356): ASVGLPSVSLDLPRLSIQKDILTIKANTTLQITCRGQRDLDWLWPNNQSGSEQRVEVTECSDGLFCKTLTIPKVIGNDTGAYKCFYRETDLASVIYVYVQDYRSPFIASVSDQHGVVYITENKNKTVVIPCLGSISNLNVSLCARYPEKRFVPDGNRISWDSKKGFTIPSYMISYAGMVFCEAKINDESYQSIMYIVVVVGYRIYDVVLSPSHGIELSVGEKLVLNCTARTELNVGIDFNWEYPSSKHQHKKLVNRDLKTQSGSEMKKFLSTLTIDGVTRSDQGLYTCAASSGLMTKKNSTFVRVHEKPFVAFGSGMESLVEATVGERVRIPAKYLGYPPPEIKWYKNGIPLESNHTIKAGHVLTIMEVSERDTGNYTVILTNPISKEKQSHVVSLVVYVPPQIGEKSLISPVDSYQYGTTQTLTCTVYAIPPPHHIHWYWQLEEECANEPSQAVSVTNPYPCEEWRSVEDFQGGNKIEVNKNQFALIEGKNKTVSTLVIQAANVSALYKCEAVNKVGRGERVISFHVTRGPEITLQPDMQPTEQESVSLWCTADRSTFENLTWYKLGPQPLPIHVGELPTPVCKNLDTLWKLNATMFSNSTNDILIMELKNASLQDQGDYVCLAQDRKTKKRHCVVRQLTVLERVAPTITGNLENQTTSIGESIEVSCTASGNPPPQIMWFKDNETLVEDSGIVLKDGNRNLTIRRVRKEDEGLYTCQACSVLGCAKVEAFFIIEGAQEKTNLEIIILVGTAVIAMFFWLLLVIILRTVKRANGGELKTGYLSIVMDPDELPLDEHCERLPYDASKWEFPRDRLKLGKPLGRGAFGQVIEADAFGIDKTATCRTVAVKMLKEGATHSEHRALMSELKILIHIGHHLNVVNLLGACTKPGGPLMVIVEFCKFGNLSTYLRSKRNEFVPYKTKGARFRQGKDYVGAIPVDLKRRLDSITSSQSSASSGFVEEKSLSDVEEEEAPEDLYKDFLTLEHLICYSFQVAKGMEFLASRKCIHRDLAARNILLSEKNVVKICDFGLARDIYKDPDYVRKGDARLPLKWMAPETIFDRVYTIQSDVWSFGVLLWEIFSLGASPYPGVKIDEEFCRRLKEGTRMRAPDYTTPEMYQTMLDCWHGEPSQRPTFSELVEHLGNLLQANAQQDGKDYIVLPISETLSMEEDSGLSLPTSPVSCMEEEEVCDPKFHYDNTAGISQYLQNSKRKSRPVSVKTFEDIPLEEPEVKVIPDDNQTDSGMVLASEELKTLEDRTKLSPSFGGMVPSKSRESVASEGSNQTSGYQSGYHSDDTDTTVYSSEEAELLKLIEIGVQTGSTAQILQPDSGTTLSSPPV

SMILES | pIC50 (VEGFR-2) | inhibition at 0.3 µM (Human neutrophils) | pIC50 (IFN-gamma; [1]) | pIC50 (IL-1beta; [2]) | pIC50 (IL-9; [3]) | pIC50 (IL-10; [4]) | pIC50 (IL-21; [5]) | pIC50 (TGF-beta; [6]) | pIC50 (Human neutrophils) | pIC50 (IFN-gamma; [7]) | pIC50 (IL-1beta; [8]) | pIC50 (IL-9; [9]) | pIC50 (IL-10; [10]) | pIC50 (IL-21; [11]) | pIC50 (TGF-beta; [12])
O=C(Nc1ccccc1-c1nnn[nH]1)c1cc(O)c(C(=O)Nc2ccccc2-c2nnn[nH]2)cc1O [Ic-001aTz2, N1,N4-bis(2-(1H-tetrazol-5-yl)phenyl)-2,5-dihydroxyterephthalamide] | 5.66 | 60.6% | 5.86 | < 4.00 | 5.04 | < 4.00 | 4.49 | < 4.00 | – | – | – | – | – | – | –
O=C(O)c1cc(NC(=O)c2cc(O)c(C(=O)O)cc2O)cc(NC(=O)c2cc(O)c(C(=O)O)cc2O)c1 [Ib-010a, 3,5-bis(2,5-dihydroxy-4-carboxybenzoylamino)benzoic acid] | 5.80 | 71.8% | 5.65 | 4.48 | 4.94 | < 4.00 | 4.17 | < 4.00 | 5.97 | 5.65 | 4.48 | 4.94 | 4.00 | 4.17 | 4.00
O=C(O)c1cc(O)cc(CSCc2cc(O)cc(C(=O)O)c2O)c1O [IVc-058a, 3-((2,5-Dihydroxy-3-carboxyphenyl)methylthiomethyl)-2,5-dihydroxybenzoic acid] | 6.28 | 77% | 4.97 | 4.56 | 4.51 | 4.79 | 5.49 | < 4.00 | 6.54 | 4.97 | 4.56 | 4.51 | 4.79 | 5.49 | 4.00
CC(=O)N(Cc1cc(O)c(C(=O)O)cc1O)Cc1cc(O)c(C(=O)O)cc1O [IIIc-057a, N,N-Bis(4-carboxy-2,5-dihydroxyphenylmethyl)acetamide] | 6.70 | 90.3% | 6.05 | 4.79 | 4.95 | < 4.00 | 5.81 | < 4.00 | – | 6.05 | 4.79 | 4.95 | 4.00 | 5.81 | 4.00
O=C(O)c1cc(NC(=O)c2cc(O)c(C(=O)Nc3ccc(O)c(C(=O)O)c3)cc2O)ccc1O [Ic-007a, 5-(4-(3-carboxy-4-hydroxyphenylaminocarbonyl)-2,5-dihydroxybenzamido)-2-hydroxy benzoic acid] | 7.05 | 58% | 5.84 | < 4.00 | 4.57 | 4.90 | 5.72 | < 4.00 | 5.57 | 5.84 | 4.00 | 4.57 | 4.90 | 5.72 | 4.00
O=C(O)c1cc(O)c(C(=O)Nc2ccccc2-c2nnn[nH]2)cc1O [Ia-001a-Tz, 4-(2-(1H-tetrazol-5-yl)phenyl-aminocarbonyl)-2,5-dihydroxybenzoic acid] | 6.64 | 54.3% | < 4.00 | < 4.00 | 5.06 | 4.58 | < 4.00 | < 4.00 | 5.81 | 4.00 | 4.00 | 5.06 | 4.58 | 4.00 | 4.00
O=C(O)c1cc(O)c(C(=O)Nc2ccc(-c3nnn[nH]3)cc2)cc1O [Ia-003a-Tz, 4-(4-(1H-tetrazol-5-yl)phenyl-aminocarbonyl)-2,5-dihydroxybenzoic acid] | 5.19 | 62.2% | 5.53 | < 4.00 | 5.44 | 5.16 | 5.83 | < 4.00 | 5.60 | 5.53 | 4.00 | 5.44 | 5.16 | 5.83 | 4.00
O=C(O)Cc1cc(O)c(C(=O)Nc2ccccc2-c2nnn[nH]2)cc1O [IIIa-001aTz] | 6.15 | 69.3% | 4.72 | < 4.00 | 5.52 | 5.11 | 5.52 | < 4.00 | – | 4.72 | 4.00 | 5.52 | 5.11 | 5.52 | 4.00
O=C(O)c1cc(O)c(C(=O)Nc2ccccc2C(=O)O)cc1O [Ia-001a, 4-(2-carboxyphenylaminocarbonyl)-2,5-dihydroxybenzoic acid] | 5.65 | 48% | 4.52 | 4.46 | 5.25 | < 4.00 | < 4.00 | < 4.00 | 6.45 | 4.52 | 4.46 | 5.25 | 4.00 | 4.00 | 4.00
O=C(O)c1cc(O)c(C(=O)Nc2ccccc2S(=O)(=O)O)cc1O [Ia-001c, 2,5-dihydroxy-4-(2-sulfophenylaminocarbonyl)benzoic acid] | 5.48 | 40.4% | 6.36 | < 4.00 | 4.33 | 5.72 | < 4.00 | < 4.00 | 5.62 | 6.36 | 4.00 | 4.33 | 5.72 | 4.00 | 4.00
O=C(O)c1ccccc1CNC(=O)c1cc(O)cc(C(=O)O)c1O [IIa-053a, 3-(2-Carboxyphenylmethylaminocarbonyl)-2,5-dihydroxybenzoic acid] | 6.57 | 63.1% | 5.98 | < 4.00 | 5.85 | < 4.00 | < 4.00 | < 4.00 | 6.21 | 5.98 | 4.00 | 5.85 | 4.00 | 4.00 | 4.00
COC(=O)c1cc(OC(C)=O)cc(CS(=O)(=O)Cc2cc(OC(C)=O)cc(C(=O)OC)c2OC(C)=O)c1OC(C)=O [IVc-059a-E2-A4] | – | 29.2% | 5.46 | 4.85 | 5.54 | 4.77 | < 4.00 | < 4.00 | 5.38 | 5.46 | 4.85 | 5.54 | 4.77 | 4.00 | 4.00
